Article PMC6120190, “Identification of two distinct peptide-binding pockets in the SH3 domain of human mixed-lineage kinase 3” (The Journal of Biological Chemistry, 2018)
Each block holds one molecule with its values, some of them ahead of it. No end group written: not given here.

Key:
MLK3 SH3 domain = test: analytical size-exclusion chromatography of MLK3 SH3-MIP fusion proteins (oligomeric state); type: binding, human; conditions: Superdex 200 10/300 GL, 25 mM Tris-HCl, pH 7.4, 500 mM NaCl; for effect of mutation on binding to MLK3 SH3 (fusion proteins, gel filtration): 750 μg/200 μl (Fig. S4); for oligomeric state by size-exclusion chromatography: MIP(1–19) fusion 2 mg/200 μl, MIP(1–13) fusions 750 μg/200 μl
Source text: Two DNA fragments encoding the SH3 domain of MLK3 (UniProt entry Q16584), MLK3 SH3(41–105) and MLK3 SH3(44–103), and four fragments encoding SH3 domain-MIP fusions, MLK3 SH3(41–105)-MIP(1–19), MLK3 SH3(41–105)-MIP(1–13), MLK3 SH3(41–105)-MIP(1–13)W10A, and MLK3 SH3(41–105)-MIP(1–13)R12A, were commercially prepared as gBlocks Gene Fragments. One fragment encoding SH3 domain fused to an NS5A (UniProt entry A0A076MER2) peptide, MLK3 SH3(41–105)-NS5A(2325–2332), was created by amplifying MLK3 SH3(41–105) with T7 promoter primer and a reverse primer (see Table S1). The subsequent insert contained MLK3 SH3(41–105) with the NS5A fragment (aa 2325–2332) at the C terminus. All coding regions were codon-optimized for E. coli expression. DNA fragments were cleaved with NdeI and BamHI-HF (New England Biolabs) and subsequently ligated into a modified version of the pET14b expression vector where the N-terminal His6 tag is followed by a SUMO protease cleavage site. The resulting DNA constructs (verified by sequencing) were transformed into E. coli strain BL21 C41(DE3). Cells were grown at 37 °C in 2× YT medium, which was supplemented with either 50 μg/ml CB or 100 μg/ml ampicillin, protein expression was induced with 0.1–0.3 mM IPTG at an A600 nm of 0.6–0.7, and cells were cultured overnight at 22 °C. Cells were harvested by centrifugation; washed with 200 mM KCl, 50 mM Tris, pH 7.4; and lysed by sonication in 25 mM Tris, pH 7.4, 200 mM KCl, 10 mM MgCl2, 10% glycerol, 1% Triton X-100, 1 mM phenylmethylsulfonyl fluoride (PMSF). Clarified supernatant was loaded onto a 5-ml HisTrap^TM HP Ni-Sepharose column (GE Healthcare), and the column was washed with 25 mM Tris, pH 7.4, 500 mM NaCl supplemented with 10 and 25 mM imidazole. Protein was eluted in the same buffer, which was supplemented with 250 and 500 mM imidazole, and the fractions were pooled together. The His6-SUMO tag was cleaved with SUMO protease while dialyzing against 25 mM Tris, pH 7.4, 500 mM NaCl, 10 mM imidazole, and the tag was removed by loading the sample back onto a nickel column. Collected fractions containing purified protein were concentrated and injected onto an S-200 size-exclusion column (GE Healthcare) equilibrated with 25 mM Tris-HCl, pH 7.4, 500 mM NaCl. To confirm the purity, collected samples were analyzed by SDS-PAGE and detected with Coomassie Brilliant Blue staining. All purified proteins were concentrated and stored at −80 °C.
To determine oligomeric state of several MLK3 SH3 fusion proteins, samples were injected into a Superdex 200 10/300 GL size-exclusion chromatography column (GE Healthcare) in two independent experiments. Two samples, MLK3 SH3(41–105)-MIP(1–19) and MLK3 SH3(41–105), at 2 mg of protein/200-μl injection, were analyzed in the first experiment (Fig. S3). Three additional samples of MLK3 SH3 domain-MIP fusion proteins were analyzed in a second experiment by injecting 750 μg of protein in 200 μl: MLK3 SH3(41–105)-MIP(1–13), MLK3 SH3(41–105)-MIP(1–13)W10A, and MLK3 SH3(41–105)-MIP(1–13)R12A (Fig. S4). Prior to the injections, the column was equilibrated with 25 mM Tris-HCl, pH 7.4, 500 mM NaCl.
Figure S3. Comparison of apo vs peptide-bound MLK3 SH3. Gel filtration chromatography of MLK3 SH3 and MLK3 SH3-MIP(1-19) fusion using Superdex 200 10/300 GL. Both constructs were expressed and purified as His6-SUMO fusions and the tag cleaved with SUMO protease. […] PS corresponds to MW standards (kDa).
Figure S4. W10 and R12 in MIP are critical for intermolecular interaction with MLK3 SH3 in vitro. Three fusion proteins composed of MLK3 SH3(41-105) domain linked via its C-terminus to one of the MIP variant: MIP(1-13) (Blue), MIP(1-13)W10A (Red), or MIP(1-13)R12A (Green), and have been analyzed using gel filtration chromatography. Corresponding sequences of MIP variants are: […] (Blue), […] (Red), and […] (Green). […] The chromatogram corresponding to MLK3 SH3 (Orange) was scaled down by approximately 33%. […]

GST-MLK3 SH3 [1] = test: phage ELISA of phage-displayed MIP and variants on GST-MLK3 SH3; type: binding, human; conditions: original clone/MIP, anti-M13 mAb-HRP detection, experiments in duplicate, averaged
Experimental: Figure 1. […] The presence of virions in the supernatant was determined by coating the wells of the microtiter plate with an anti-M13 mAb (anti-M13 Ab). Virions, which were retained in the microtiter plate wells, were detected with anti-M13 mAb conjugated to HRP. […] See also Fig. S1.
Figure 2. […] The MIP sequence, NH2-[…]-COOH, was fused to the N terminus of the pIII capsid protein of bacteriophage M13 ([51]) to facilitate type 3 pentavalent display. Systematic alanine replacements in the peptide were generated by Kunkel mutagenesis ([11]); Ala-1 and Ala-14 were replaced with Val. […] The signal for binding of MIP (WT) to GST-MLK3 SH3 is set as 100%, and other values are normalized to it. […] See also Fig. S2.
Screens for peptide ligands were performed following a protocol published previously ([11]). […] After three rounds of affinity selection, individual phage clones were isolated, and their binding was evaluated via phage ELISA ([11]). […]
All constructs were generated via Kunkel mutagenesis ([11], [57], [58]) and facilitated type 3 (pentavalent) display. […] All constructs were verified by DNA sequencing, and phage clones were evaluated for their binding to the target (GST-MLK3 SH3) via phage ELISA ([11]). […]

GST-MLK1 SH3 [2] = test: specificity ELISA, MLK1; type: binding, human; conditions: biotinylated peptide ≈2 μM on NeutrAvidin; GST-SH3 0.15 μM, 1–1.5 h; anti-GST-HRP; triplicate (Fig. 8)
Experimental: (§1) Figure 8. Binding of MIP and NS5A peptides to SH3 domain of other members of MLK subfamily (MLK1–4). To determine whether MIP and NS5A can interact with SH3 domains of MLK1–4 proteins, the purified GST-MLK1–4 SH3 domains were incubated with biotinylated peptides, NS5A peptide ([…]-GGG-K-biotin), MIP ([…]-K-biotin), and MIP-R12A ([…]-K-biotin), immobilized on a NeutrAvidin-coated 96-well ELISA plate. Binding of SH3 domain was detected with anti-GST antibody conjugated to HRP. […] See also Fig. S6.
(§2) Two plasmids, gifts from Dr. Gerardo Morfini, University of Illinois at Chicago, encoding a GST protein fused to either the WT or mutant Y52A of the SH3 domain of MLK3 (UniProt entry Q16584; aa 43–104), respectively, between BamHI and EcoRI sites, were transformed into the Escherichia coli strain Rosetta(DE3)pLysS. DNA fragments encoding the SH3 domain of MLK1 (UniProt entry P80192; aa 52–116), MLK2 (UniProt entry Q02779; aa 16–81), and MLK4 (UniProt entry Q5TCX8; aa 38–102) were commercially prepared as gBlocks® Gene Fragments (Integrated DNA Technologies, Inc.). All coding regions were codon-optimized for E. coli expression. DNA fragments were cleaved with BamHI-HF® and EcoRI-HF® (New England Biolabs) and subsequently ligated into pGex-2T vector. […]

GST-MLK2 SH3 = test: specificity ELISA, MLK2; type: binding, human; conditions: biotinylated peptide ≈2 μM on NeutrAvidin; GST-SH3 0.15 μM, 1–1.5 h; anti-GST-HRP; triplicate (Fig. 8)
Experimental: as §1, §2

GST-MLK3 SH3 [3] = test: specificity ELISA, MLK3; type: binding, human; conditions: biotinylated peptide ≈2 μM on NeutrAvidin; GST-SH3 0.15 μM, 1–1.5 h; anti-GST-HRP; triplicate (Fig. 8)
Experimental: as §1, §2

GST-MLK4 SH3 [4] = test: specificity ELISA, MLK4; type: binding, human; conditions: biotinylated peptide ≈2 μM on NeutrAvidin; GST-SH3 0.15 μM, 1–1.5 h; anti-GST-HRP; triplicate (Fig. 8)
Experimental: as §1, §2

MLK3 SH3 domain Y52A = test: binding to Y52A mutant of MLK3 SH3; design: species or system human; conditions: data not shown
Source text: Two plasmids, gifts from Dr. Gerardo Morfini, University of Illinois at Chicago, encoding a GST protein fused to either the WT or mutant Y52A of the SH3 domain of MLK3 (UniProt entry Q16584; aa 43–104), respectively, between BamHI and EcoRI sites, were transformed into the Escherichia coli strain Rosetta(DE3)pLysS. DNA fragments encoding the SH3 domain of MLK1 (UniProt entry P80192; aa 52–116), MLK2 (UniProt entry Q02779; aa 16–81), and MLK4 (UniProt entry Q5TCX8; aa 38–102) were commercially prepared as gBlocks® Gene Fragments (Integrated DNA Technologies, Inc.). All coding regions were codon-optimized for E. coli expression. DNA fragments were cleaved with BamHI-HF® and EcoRI-HF® (New England Biolabs) and subsequently ligated into pGex-2T vector. The resulting DNA constructs, pGex-MLK1 SH3, pGex-MLK2 SH3, and pGex-MLK4 SH3 (verified by sequencing) were transformed into E. coli strain BL21(DE3).

GST-MLK3 SH3(43–104) = biological target: T1, GST-MLK3 SH3(43–104) (human, UniProt Q16584 43-104); test: ELISA; conditions: both partners purified
T1 construct: also called GST-MLK3 SH3-WT; SH3 WT
T1 sequence (looked up): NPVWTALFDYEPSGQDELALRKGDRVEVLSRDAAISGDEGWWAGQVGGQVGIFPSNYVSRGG

GST-MLK1 SH3 [5] = biological target: T2, GST-MLK1 SH3 (UniProt P80192 52-116); test: ELISA; conditions: both partners purified
T2 construct: also called SH3 domain of MLK1
T2 sequence (looked up): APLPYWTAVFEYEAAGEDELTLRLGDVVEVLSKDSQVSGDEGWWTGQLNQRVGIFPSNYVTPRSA

GST-MLK4 SH3 [6] = biological target: T3, GST-MLK4 SH3 (UniProt Q5TCX8 38-102); test: ELISA; conditions: both partners purified
T3 construct: also called SH3 domain of MLK4
T3 sequence (looked up): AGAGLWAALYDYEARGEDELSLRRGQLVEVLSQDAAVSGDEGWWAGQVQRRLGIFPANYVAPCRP

Molecule: AIRINPNGTASRQ [MIP(1–13)W10A, SH3 domain linked via its C terminus to MIP(1–13)W10A]
effect of mutation on binding to MLK3 SH3 (fusion proteins, gel filtration) (MLK3 SH3 domain): loss of binding to MLK3 SH3 | oligomeric state by size-exclusion chromatography (MLK3 SH3 domain): elute at a volume corresponding to the size of a monomeric fusion protein | oligomeric state by size-exclusion chromatography (MLK3 SH3 domain; listed as MIP(1-13)W10A): elute at fraction corresponding to the size of a monomeric fusion protein

Molecule: AIRINPNGTWSAQ [MIP(1–13)R12A, SH3 domain linked via its C terminus to MIP(1–13)R12A]
effect of mutation on binding to MLK3 SH3 (fusion proteins, gel filtration) (MLK3 SH3 domain): loss of binding to MLK3 SH3 | oligomeric state by size-exclusion chromatography (MLK3 SH3 domain): elute at a volume corresponding to the size of a monomeric fusion protein | oligomeric state by size-exclusion chromatography (MLK3 SH3 domain; listed as MIP(1-13)R12A): elute at fraction corresponding to the size of a monomeric fusion protein

Molecule: AIRINPNGTWSRQ [MLK3 SH3(41–105)-MIP(1–13), SH3 domain linked via its C terminus to truncated WT ligand]
oligomeric state by size-exclusion chromatography (MLK3 SH3 domain): eluted as a higher order oligomer

Molecule: H-IRINPNGTWSRQ-OH [single clone displaying a 12-mer peptide from ANL7 library]
binding to GST-MLK3 SH3 in phage ELISA (GST-MLK3 SH3 [1]): bound to the wildtype (WT) form of the MLK3 SH3 domain

Molecule: KKAPTPPPRRRRGGGK [NS5A peptide, reference compound]
binding to MLK1 SH3 (GST-MLK1 SH3 [2]): could bind | binding to MLK2 SH3 (GST-MLK2 SH3): could bind | binding to MLK3 SH3 (GST-MLK3 SH3 [3]): could bind | binding to MLK4 SH3 (GST-MLK4 SH3 [4]): could bind | effect of SH3 mutation Y52A on peptide binding (MLK3 SH3 domain Y52A): disrupts binding

binding result (GST-MLK3 SH3(43–104)): binds | binding result (GST-MLK1 SH3 [5]): binds | binding result (GST-MLK4 SH3 [6]): binds
B1: biotinylated MIP (AIRINPNGTWSRQAETVES-K-biotin) (peptide)
peptide: AIRINPNGTWSRQAETVESK
modifications: biotin on the added C-terminal K
notes: also called immobilized MIP; biotinylated MIP peptide; source: synthetic peptide
